Experimental data as given in patent US7303618B1, “Ink for ink-jet recording” (Brother Kogyo Kabushiki Kaisha, priority 2006, dated 2007).

Assay: Ozone resistance (OD value reduction of printed patch)
Assay type: physicochemical
Conditions: discussion of Table 1
Excerpt: Each of the inks for ink-jet recording was filled into a desired ink cartridge, and the ink cartridge was attached to a digital multifunction device equipped with an ink-jet printer (DCP-110C, product of Brother Industries, Ltd.) to perform the printing evaluation. First, as an evaluation sample, a gradation sample of each cyan ink was printed on photo glossy paper (Model No. BP60GLA, product of Brother Industries, Ltd.) to prepare a patch having an initial OD value of 1.0. This patch was then subjected to an ozone resistance evaluation test using an Ozone Weather Meter OMS-H (product of Suga Test Instruments Co., Ltd.). That is, the patch was left to stand under the conditions of an ozone concentration of 1 ppm, a chamber temperature of 24° C. and a chamber humidity of 60% RH for 40 hours. Specifically, the color patch printed with each cyan ink and having an OD value of 1.0 before the test was then measured for an OD value after the ozone resistance evaluation test was completed. The OD value was measured by means of a Spectrolino (product of Gretag Macbeth) (light source: D65; viewing angle: 2°; Status A). […]
The obtained OD value reduction ratio was then evaluated according to the criteria below. When the OD value reduction ratio is less than 30%, the ozone resistance performance for general use is determined to be at an acceptable level. […]

Substance: C. I. Direct Blue 199 [Dye (2-C)]
- Ozone resistance (in words): poor
